From US10463667B2 (Incyte Corporation, priority 2007, dated 2019)

How the values were obtained:
[1] = target: T1, human Jak2 (a.a. 828-1132) catalytic domain (Homo sapiens, UniProt O60674); experiment: In vitro JAK kinase assay (HTRF), JAK2; type: biochemical; conditions: 30 μM ATP; ranges = lowest and highest values of the stereoisomers tested; read-out: JAK 2 IC50
T1 construct: Jak2 (a.a. 828-1132); His tag (N); made in house; host or cells: insect cells (baculovirus)

[2] = Intrinsic clearance assay (human liver microsomes); type: in vitro ADME; conditions: both sexes; 1 μM compound, human liver microsomes 0.5 mg/mL protein, 37° C., 1 mM NADPH; read-out: Human Intrinsic CL (converted)
Method: Intrinsic Clearance Assay
The disappearance of the test compound was monitored by LC/MS at […] The slope of decline in compound concentration was used to calculate the human intrinsic clearance by employing standard methods reported in the literature.

[3] = target: human JAK1 (a.a. 837-1142) catalytic domain (Homo sapiens, UniProt P23458); experiment: In vitro JAK kinase assay (HTRF), JAK1
[4] = target: human Jak3 (a.a. 781-1124) catalytic domain (Homo sapiens, UniProt P52333); experiment: In vitro JAK kinase assay (HTRF), JAK3
Sequence of human Jak3 (a.a. 781-1124) catalytic domain (P52333 781-1124): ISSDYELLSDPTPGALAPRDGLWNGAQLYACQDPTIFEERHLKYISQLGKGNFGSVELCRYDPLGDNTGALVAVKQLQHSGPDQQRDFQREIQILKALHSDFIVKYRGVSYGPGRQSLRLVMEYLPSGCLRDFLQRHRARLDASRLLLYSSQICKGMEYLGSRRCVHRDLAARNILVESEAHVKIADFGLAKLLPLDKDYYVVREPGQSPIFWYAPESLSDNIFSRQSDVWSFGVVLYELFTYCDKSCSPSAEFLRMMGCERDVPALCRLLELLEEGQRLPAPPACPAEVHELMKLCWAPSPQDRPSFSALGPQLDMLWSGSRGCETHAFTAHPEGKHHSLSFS

Sequence of human JAK1 (a.a. 837-1142) catalytic domain (P23458 849-1154): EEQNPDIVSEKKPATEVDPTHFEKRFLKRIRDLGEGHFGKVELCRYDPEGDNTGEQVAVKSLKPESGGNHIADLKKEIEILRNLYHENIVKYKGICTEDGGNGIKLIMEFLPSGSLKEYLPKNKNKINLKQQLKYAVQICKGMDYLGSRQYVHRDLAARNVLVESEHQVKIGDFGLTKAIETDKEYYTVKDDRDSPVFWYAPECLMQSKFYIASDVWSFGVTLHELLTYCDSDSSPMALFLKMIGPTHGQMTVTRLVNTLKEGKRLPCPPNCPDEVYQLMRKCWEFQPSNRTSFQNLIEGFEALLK
T1 sequence (O60674 828-1132): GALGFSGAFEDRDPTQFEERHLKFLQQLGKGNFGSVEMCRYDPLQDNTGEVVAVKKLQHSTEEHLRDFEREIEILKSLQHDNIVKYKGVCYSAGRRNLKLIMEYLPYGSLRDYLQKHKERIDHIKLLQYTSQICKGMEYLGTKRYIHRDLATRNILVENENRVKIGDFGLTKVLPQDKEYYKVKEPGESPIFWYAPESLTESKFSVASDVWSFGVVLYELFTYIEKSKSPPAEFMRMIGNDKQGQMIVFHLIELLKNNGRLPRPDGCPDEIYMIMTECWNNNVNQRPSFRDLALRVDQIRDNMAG

| IC50 [1] [nM] | CLint scaled at 1 μM [2] [mL/min/kg] | IC50 [3] [nM] | IC50 [4] [nM] | SMILES |
| --- | --- | --- | --- | --- |
| 2.1 to 5.9 | < 9.5 | 2.7 to 12 | 11 to 41 | N#CCC(C1CCC(=O)C1)n1cc(-c2ncnc3[nH]ccc23)cn1 (stereo not shown) [Metabolite 3, 3-(4-(7H-pyrrolo[2,3-d]pyrimidin-4-yl)-1H-pyrazol-1-yl)-3-(3-oxycyclopentyl)propanenitrile] |
|  | 11.3 |  |  | N#CC[C@H](C1CCCC1)n1cc(-c2ncnc3[nH]ccc23)cn1 [Compound 1, (R)-3-(4-(7H-pyrrolo[2,3-d]pyrimidin-4-yl)-1H-pyrazol-1-yl)-3-cyclopentylpropanenitrile, reference compound] |
| 2 to 2.8 | < 8.33 | 3 to 15 | 17 to 30 | N#CCC(C1CCCC1O)n1cc(-c2ncnc3[nH]ccc23)cn1 (stereo not shown) [Metabolite 2, 3-(4-(7H-pyrrolo[2,3-d]pyrimidin-4-yl)-1H-pyrazol-1-yl)-3-(2-hydroxycyclopentyl)propanenitrile] |
| 0.7 to 2.5 | < 8.33 | 2.5 to 12 | 8.3 to 45 | N#CCC(C1CCC(O)C1)n1cc(-c2ncnc3[nH]ccc23)cn1 (stereo not shown) [Metabolite 1, 3-(4-(7H-pyrrolo[2,3-d]pyrimidin-4-yl)-1H-pyrazol-1-yl)-3-(3-hydroxycyclopentyl)propanenitrile] |
